Source: patent publication US7632807B2, “Cyclosporin alkynes and their utility as pharmaceutical agents” (Albany Molecular Research, Inc., priority 2004, dated 2009)
Values after ≈ are worked out from the molar mass of the structure shown. “Also recorded” adds a separate entry of the source.

Assays:
[1] = literature value (Rich et al. 1990); cited from earlier work
[2] = test system: concanavalin A-stimulated murine splenocytes; test: Concanavalin A (ConA)-stimulated murine splenocyte assay; type: cell-based, mouse (BALB/c)
Experimental: Concanavalin A—Stimulated Splenocyte Assay
Male BALB/c mice, at 5 to 7 weeks of age, were sacrificed by CO2 inhalation. Spleens were removed and dissociated by pushing through a nylon cell strainer. The splenocytes were washed in RPMI 1640/5% fetal calf serum (FCS) and pelleted at 400×g. Red blood cells were then lysed by resuspending the cell pellet in ACK lysis buffer (150 mM NH4Cl, 1 mM KHCO3, 0.1 mM EDTA, 3 mL per spleen) for 10 min at room temperature. After pelleting at 400×g, the cells were washed by resuspending in RPMI 1640/5% FCS and repelleting. The cell pellet was resuspended in RPMI 1640/5% FCS and again passed through a cell strainer to remove cell aggregates. The cells were then counted and adjusted to 2×10^6 cells/ml in RPMI 1640/10% FCS/[…] 2-mercaptoethanol. Cell viability was assessed by Trypan blue staining. […] The cells were cultured in a 37° C. CO2 incubator for 2 days and then pulsed with 1 μCi of [^3H]thymidine for 6 hours. Cells were harvested onto filtermats with a TomTec 96 well plate harvester and lysed with H2O. The filtermat and scintillation fluid were sealed in a plastic sleeve. [^3H]thymidine incorporation was measured with a Wallac Trilux plate counter. Initial screens were done at a fixed value of 100 ng/ml test compound. IC50s were calculated from 7 point concentration-response curves using graphPad software.

Compound | relative immunosuppressive activity, compared to cyclosporin A [1] | immunosuppressive potency compared to cyclosporin A ([2]; FIG. 1, ConA-stimulated murine splenocyte assay) | IC50 ([2]; novel cyclosporin alkyne analogue, ConA-stimulated BALB/c splenocytes, [3H]thymidine incorporation, 7 point concentration-response curves)
CC#CC[C@@H](C)[C@@H](O)[C@H]1C(=O)N[C@@H](CC)C(=O)N(C)CC(=O)N(C)[C@@H](CC(C)C)C(=O)N[C@@H](C(C)C)C(=O)N(C)[C@@H](CC(C)C)C(=O)N[C@@H](C)C(=O)N[C@H](C)C(=O)N(C)[C@@H](CC(C)C)C(=O)N(C)[C@@H](CC(C)C)C(=O)N(C)[C@@H](C(C)C)C(=O)N1C [known cyclosporin alkyne] | 10% |  | 
C#CC#CC[C@@H](C)[C@@H](O)[C@H]1C(=O)N[C@@H](CC)C(=O)N(C)CC(=O)N(C)[C@@H](CC(C)C)C(=O)N[C@@H](C(C)C)C(=O)N(C)[C@@H](CC(C)C)C(=O)N[C@@H](C)C(=O)N[C@H](C)C(=O)N(C)[C@@H](CC(C)C)C(=O)N(C)[C@@H](CC(C)C)C(=O)N(C)[C@@H](C(C)C)C(=O)N1C [Example 25, cyclosporine diyne] |  | enhanced or similar potency in immunosuppression; also recorded: two times more potent over cyclosporin A | 0.012 µg/mL (≈ 9.91 nM)
